pEC50: −log10 of the molar value.
Tests used:
[1] = GTT (glucose tolerance test): improvement of diabetes; assay type: in vivo, mice; conditions: after 78-day oral administration; for change of blood sugar level with time: followed to 120 minutes
Procedure: GTT (glucose tolerance test) was performed in order to confirm the diabetic improvement effect of the compound of the present invention. A vehicle, GW501516 and HK101225 were orally administered to mice over a 78-day period. Then, glucose (1.5 g/kg) was abdominally administered and change of blood sugar level with time was checked.

[2] = Animal test: prevention of obesity under high-fat diet; assay type: in vivo, C57BL/6 mice; conditions: for increase in body weight: 10 mg/kg/day orally over a 78-day period of high-fat diet (feed with 35 % fat), vehicle group 102 %; for increase in body weight relative to the vehicle group: 10 mg/kg/day orally, 78-day high-fat diet, fraction of vehicle group's increase
Procedure: Animal test was performed with mice in order to confirm the in vivo effect of HK101225. 14-weeks old C57BL/6 mice (SLC Co.) were used and a feed containing 35 % of fat was given to induce obesity. A vehicle, GW501516 (10 mg/kg/day) and HK101225 (10 mg/kg/day) were orally administered over a 78-day period of high-fat diet. […] Thus, it was confirmed that HK101225 has a strong prevention effect against obesity.

CV-1 cells = assay: MTT assay (cell toxicity); assay type: cell-based; conditions: 24 hours, at the concentration of 50,000 times of the EC50 (1.87 nM) value
Procedure: Toxicity was tested by MTT assay for HK101225 prepared in Example 4. MTT is a water-soluble, yellow substance. However, when introduced in a living cell, it is transformed into a water-insoluble, purple crystal by the mitochondrial dehydrogenase. Cell toxicity can be tested by dissolving this substance in dimethylsulfoxide and measuring light absorbance at 550 nm. The test was performed as follows.
CV-1 cells were inoculated on a 96-well plate, 5,000 cells/well. After culturing for 24 hours in a humidified culture system of 37 °C containing 5 % of carbon dioxide, the cells were treated with HK101225 at various concentrations. MTT reagent was added after 24 hours of culturing. After culturing for about 15 minutes, the purple crystal was dissolved in dimethylsulfoxide and absorbance was measured with a microplate reader to confirm cell toxicity.

PPARδ = molecular target: T1, PPARδ (Homo sapiens, UniProt Q03181); assay: Transfection assay (luciferase reporter, full-length PPARs plasmid DNA) in CV-1 cells; assay type: cell-based; conditions: 24 hours treatment, luciferase calibrated with β-galactosidase
T1 construct: Full-length PPARs plasmid DNA, reporter DNA, which has luciferase activity; expressed in transfected cells; host or cells: CV-1 cells
T1 sequence (Q03181 1-441): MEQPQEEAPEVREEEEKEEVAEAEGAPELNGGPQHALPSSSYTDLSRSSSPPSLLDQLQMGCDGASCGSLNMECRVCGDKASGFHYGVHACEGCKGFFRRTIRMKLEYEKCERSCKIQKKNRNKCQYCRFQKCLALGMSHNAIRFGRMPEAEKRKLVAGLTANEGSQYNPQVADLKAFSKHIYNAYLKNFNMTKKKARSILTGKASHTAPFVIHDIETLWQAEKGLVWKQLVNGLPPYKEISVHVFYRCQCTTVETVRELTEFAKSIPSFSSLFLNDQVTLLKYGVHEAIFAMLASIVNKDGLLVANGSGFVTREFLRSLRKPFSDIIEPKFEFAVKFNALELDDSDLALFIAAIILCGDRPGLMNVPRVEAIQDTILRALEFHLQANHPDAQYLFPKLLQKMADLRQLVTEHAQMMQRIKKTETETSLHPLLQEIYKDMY
Procedure: (§1) Transfection assay was performed using CV-1 cells. The cells were cultured with a DMEM medium containing 10 % FBS, DBS (delipidated) and 1 % penicillin/streptomycin in 37 °C of a transfection assay culture system containing 5 % of carbon dioxide on a 96-well plate. Test was performed in four stages - cell inoculation, transfection, treatment with the compound of the present invention and confirmation. The CV-1 cells were inoculated on the 96-well plate, 5,000 cells/well. Transfection was performed 24 hours later. Full-length PPARs plasmid DNA, reporter DNA, which has luciferase activity and thus enables confirmation of the activity for PPARs, and β-galactosidase DNA, which offers effective information on the transfection, were used. HK101225 prepared in Example 4 was dissolved in dimethylsulfoxide (DMSO) and treated to the cells at various concentrations. After 24 hours of culturing in an incubator, the cells were lysed with a lysis buffer and luciferase activity and β-galactosidase activity were measured using a luminometer and a microplate reader. The measured luciferase activity was calibrated with the β-galactosidase activity. The result was depicted on a graph and EC50 was determined.

PPARγ = molecular target: T2, PPARγ (Homo sapiens, UniProt P37231); assay: as above; assay type: cell-based; conditions: 24 hours treatment, luciferase calibrated with β-galactosidase
T2 construct: Full-length PPARs plasmid DNA, reporter DNA, which has luciferase activity; expressed in transfected cells; host or cells: CV-1 cells
T2 sequence (P37231 1-505): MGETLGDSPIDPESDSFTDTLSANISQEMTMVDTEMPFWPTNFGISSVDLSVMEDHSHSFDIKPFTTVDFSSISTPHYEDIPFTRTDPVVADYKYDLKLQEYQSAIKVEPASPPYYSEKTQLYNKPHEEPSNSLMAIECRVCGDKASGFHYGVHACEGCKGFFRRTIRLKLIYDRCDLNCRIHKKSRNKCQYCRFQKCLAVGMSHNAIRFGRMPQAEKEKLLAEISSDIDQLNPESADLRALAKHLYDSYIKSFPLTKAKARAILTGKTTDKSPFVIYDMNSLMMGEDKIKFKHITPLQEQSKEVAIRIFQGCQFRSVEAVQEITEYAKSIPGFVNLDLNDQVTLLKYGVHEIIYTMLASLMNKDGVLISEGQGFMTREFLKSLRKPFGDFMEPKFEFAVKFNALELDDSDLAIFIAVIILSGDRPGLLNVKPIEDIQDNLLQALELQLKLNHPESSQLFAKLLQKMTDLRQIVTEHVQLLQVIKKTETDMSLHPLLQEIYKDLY
Procedure: as §1

PPARα = molecular target: T3, PPARα (Homo sapiens, UniProt Q07869); assay: as above; assay type: cell-based; conditions: 24 hours treatment, luciferase calibrated with β-galactosidase
T3 construct: Full-length PPARs plasmid DNA, reporter DNA, which has luciferase activity; expressed in transfected cells; host or cells: CV-1 cells
T3 sequence (Q07869 1-468): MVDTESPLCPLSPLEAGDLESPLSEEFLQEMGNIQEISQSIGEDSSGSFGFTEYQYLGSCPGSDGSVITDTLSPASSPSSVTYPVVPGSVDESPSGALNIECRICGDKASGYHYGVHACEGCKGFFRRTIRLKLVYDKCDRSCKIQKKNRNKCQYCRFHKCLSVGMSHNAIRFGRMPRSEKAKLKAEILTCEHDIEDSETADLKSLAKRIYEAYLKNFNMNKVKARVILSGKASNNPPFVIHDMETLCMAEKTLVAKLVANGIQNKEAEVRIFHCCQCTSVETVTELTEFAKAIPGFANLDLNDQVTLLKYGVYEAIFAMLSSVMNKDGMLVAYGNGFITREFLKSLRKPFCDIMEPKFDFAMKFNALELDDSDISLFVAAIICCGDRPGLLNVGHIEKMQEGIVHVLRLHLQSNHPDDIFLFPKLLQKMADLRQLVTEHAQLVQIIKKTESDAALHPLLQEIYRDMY
Procedure: as §1

Row | SMILES | change of blood sugar level with time ([1]; glucose 1.5 g/kg abdominally) | increase in body weight [2] [%] | increase in body weight relative to the vehicle group [2] | toxicity (CV-1 cells) | fasting blood sugar level ([1]; compared with vehicle and GW501516 groups) | time to complete glucose clearance ([1]; glucose 1.5 g/kg abdominally) [min] | pEC50 (PPARδ) | pEC50 (PPARγ) | pEC50 (PPARα)
1 | Cc1cc(SCc2sc(-c3ccc(C(F)(F)F)cc3)nc2C)ccc1OCC(=O)O [GW501516, [2-methyl-4-[[[4-methyl-2-[4-(trifluoromethyl)phenyl]-1,3-thiazol-5-yl]methyl]sulfanyl]phenoxy]acetic acid, reference compound] | blood sugar level lower than that of the vehicle group, but did not restore to the normal level | 21 | about 1/5 | – | – | – | – | – | –
2 | Cc1cc([Se]Cc2sc(-c3ccc(C(F)(F)F)cc3)nc2C)ccc1OCC(=O)O [HK101225, 2-[4-[[2-[4-(trifluoromethyl)phenyl]-4-methylthiazol-5-yl]methylselanyl]-2-methylphenoxy]acetic acid] | rapid decrease of blood sugar level between 20 and 40 minutes | 21 | about 1/5 | no toxicity | lower fasting blood sugar level than the groups to which the vehicle and GW501516 were administered | 100 | 8.73 | < 5.00 | < 5.00
